From ChEMBL document CHEMBL4834428 (J Med Chem, 2021)

How the values were obtained:
[1] = target: T1, NAD-dependent protein deacetylase sirtuin-3, mitochondrial (Homo sapiens, UniProt Q9NTG7); assay: Inhibition of His6-tagged/TEV fused SIRT3 (unknown origin) expressed in Escherichia coli BL21 (DE3) preincubated for 15 mins followed by NAD+ addition and measured after 30 mins by FLucK529Ac based luminescence assay
T1 sequence (Q9NTG7 whole entry): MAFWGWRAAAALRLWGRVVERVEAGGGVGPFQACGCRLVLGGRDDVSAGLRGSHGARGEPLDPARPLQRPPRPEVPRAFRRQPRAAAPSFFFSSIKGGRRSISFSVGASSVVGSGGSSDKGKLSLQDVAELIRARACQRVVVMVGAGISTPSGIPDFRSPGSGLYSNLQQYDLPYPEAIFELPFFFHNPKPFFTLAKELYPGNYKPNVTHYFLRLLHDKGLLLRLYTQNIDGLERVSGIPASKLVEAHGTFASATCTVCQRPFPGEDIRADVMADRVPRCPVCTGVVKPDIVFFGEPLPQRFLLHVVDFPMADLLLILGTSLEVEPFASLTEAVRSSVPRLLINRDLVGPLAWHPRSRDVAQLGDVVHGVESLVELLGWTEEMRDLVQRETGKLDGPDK

[2] = target: T2, NAD-dependent protein deacetylase sirtuin-1 (Homo sapiens, UniProt Q96EB6)
T2 sequence (Q96EB6 whole entry): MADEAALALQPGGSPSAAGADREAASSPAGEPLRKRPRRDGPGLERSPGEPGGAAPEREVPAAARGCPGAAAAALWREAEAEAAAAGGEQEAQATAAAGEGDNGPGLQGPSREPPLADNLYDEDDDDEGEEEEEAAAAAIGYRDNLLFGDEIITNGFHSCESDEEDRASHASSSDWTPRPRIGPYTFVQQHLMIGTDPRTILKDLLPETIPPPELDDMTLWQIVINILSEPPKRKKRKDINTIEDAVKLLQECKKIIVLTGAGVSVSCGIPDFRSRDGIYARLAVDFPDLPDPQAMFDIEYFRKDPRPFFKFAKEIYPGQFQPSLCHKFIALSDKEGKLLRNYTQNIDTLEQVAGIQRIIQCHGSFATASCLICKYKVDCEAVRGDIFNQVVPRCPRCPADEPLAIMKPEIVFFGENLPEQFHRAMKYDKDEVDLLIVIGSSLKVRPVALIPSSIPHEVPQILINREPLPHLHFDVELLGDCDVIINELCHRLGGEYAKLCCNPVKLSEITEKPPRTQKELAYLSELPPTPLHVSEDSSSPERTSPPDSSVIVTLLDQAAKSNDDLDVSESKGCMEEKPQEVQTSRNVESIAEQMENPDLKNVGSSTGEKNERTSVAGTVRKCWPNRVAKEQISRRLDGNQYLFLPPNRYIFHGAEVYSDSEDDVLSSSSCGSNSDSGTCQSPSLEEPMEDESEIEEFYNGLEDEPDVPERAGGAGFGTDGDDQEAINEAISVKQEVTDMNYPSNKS
Description: Inhibition of His6-tagged SIRT1 (unknown origin) expressed in Escherichia coli BL21 (DE3) preincubated for 15 mins followed by NAD+ addition and measured after 30 mins by FLucK529Ac based luminescence assay

[3] = target: T3, NAD-dependent protein deacetylase sirtuin-2 (Homo sapiens, UniProt Q8IXJ6); assay: Inhibition of His6-tagged/TEV fused SIRT2 (unknown origin) expressed in Escherichia coli BL21 (DE3) preincubated for 15 mins followed by NAD+ addition and measured after 30 mins by FLucK529Ac based luminescence assay
T3 sequence (Q8IXJ6 whole entry): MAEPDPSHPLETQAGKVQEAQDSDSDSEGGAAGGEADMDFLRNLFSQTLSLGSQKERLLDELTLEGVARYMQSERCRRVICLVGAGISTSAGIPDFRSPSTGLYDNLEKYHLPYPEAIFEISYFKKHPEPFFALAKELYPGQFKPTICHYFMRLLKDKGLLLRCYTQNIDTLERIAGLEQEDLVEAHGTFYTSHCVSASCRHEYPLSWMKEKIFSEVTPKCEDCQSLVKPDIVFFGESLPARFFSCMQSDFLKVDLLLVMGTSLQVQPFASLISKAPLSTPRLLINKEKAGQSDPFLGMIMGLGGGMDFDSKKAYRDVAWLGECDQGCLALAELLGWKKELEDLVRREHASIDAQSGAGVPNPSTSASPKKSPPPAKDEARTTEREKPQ

| Compound | IC50 [1] | IC50 [2] | IC50 [3] |
| --- | --- | --- | --- |
| Cc1ccc(NC(=O)N2CC(C(N)=O)Oc3ccccc32)cc1 (centres undefined) | > 60 µM | > 60 µM | > 60 µM |
| CCOC(=O)C1CN(Cc2ccccc2)c2ccccc2O1 (centres undefined) | > 60 µM | > 60 µM | > 60 µM |
| NC(=O)C1CN(C(=O)c2ccc(CCl)cc2)c2ccccc2O1 (centres undefined) | > 60 µM | 48.8 µM | > 60 µM |
| O=C(O)C1CN(Cc2ccccc2)c2ccccc2O1 (centres undefined) | > 60 µM | > 60 µM | > 60 µM |
| O=C(O)C1CNc2ccccc2O1 (centres undefined) | > 60 µM | > 60 µM | > 60 µM |
| CC(=O)Nc1cccc(CN2CC(C(N)=O)Oc3ccccc32)c1 (centres undefined) | > 60 µM | 2.4 µM | > 60 µM |
| CC(C)CC(=O)N1CC(C(N)=O)Oc2ccccc21 (centres undefined) | > 60 µM | > 60 µM | > 60 µM |
| O=C(C1CN(Cc2ccccc2)c2ccccc2O1)N1CCCCC1 (centres undefined) | > 60 µM | > 60 µM | > 60 µM |
| CN(C)C(=O)C1CN(Cc2ccccc2)c2ccccc2O1 (centres undefined) | > 60 µM | > 60 µM | > 60 µM |
| CC(C)(C)OC(=O)CN1CC(C(N)=O)Oc2ccccc21 (centres undefined) | > 60 µM | > 60 µM | > 60 µM |
| CC(=O)Nc1ccc(CN2CC(C(N)=O)Oc3ccccc32)cc1 (centres undefined) | > 60 µM | 10.4 µM | > 60 µM |
| NC(=O)C1CN(C(=O)c2cccnc2)c2ccccc2O1 (centres undefined) | > 60 µM | > 60 µM | > 60 µM |
| Cc1ccc(S(=O)(=O)N2CC(C(N)=O)Oc3ccccc32)cc1 (centres undefined) | > 60 µM | > 60 µM | > 60 µM |
| C#CCN1CC(C(N)=O)Oc2ccccc21 (centres undefined) | > 60 µM | > 60 µM | > 60 µM |
| CC(C)(C)OC(=O)Nc1nc(CN2CC(C(N)=O)Oc3ccccc32)cs1 (centres undefined) | > 60 µM | 5.63 µM | > 60 µM |
| NC(=O)C1CN(S(=O)(=O)c2cccc3ccccc23)c2ccccc2O1 (centres undefined) | > 60 µM | > 60 µM | > 60 µM |
| COC(=O)c1ccccc1CN1CC(C(N)=O)Oc2ccccc21 (centres undefined) | > 60 µM | 0.49 µM | > 60 µM |
| NC(=O)C1CNc2ccccc2O1 (centres undefined) | > 60 µM | > 60 µM | > 60 µM |
| COc1ccc(C(=O)N2CC(C(N)=O)Oc3ccccc32)cc1 (centres undefined) | – | > 60 µM | > 60 µM |
| CC(=O)Nc1nc(CN2CC(C(N)=O)Oc3ccccc32)cs1 (centres undefined) | – | 0.62 µM | > 60 µM |
| NC(=O)C1CN(Cc2ccc(-c3ccccc3)cc2)c2ccccc2O1 (centres undefined) | > 60 µM | > 60 µM | > 60 µM |
| COc1ccc(NC(=O)N2CC(C(N)=O)Oc3ccccc32)cc1 (centres undefined) | > 60 µM | > 60 µM | > 60 µM |
| CNC(=O)C1CN(Cc2ccccc2)c2ccccc2O1 (centres undefined) | > 60 µM | > 60 µM | > 60 µM |
| NC(=O)C1CN(Cc2ccccc2C(=O)O)c2ccccc2O1 (centres undefined) | > 60 µM | 13.9 µM | > 60 µM |
| NC(=O)C1CN(Cc2ccccc2)c2ccccc2O1 (centres undefined) | > 60 µM | 8.54 µM | > 60 µM |

Further lines, results first:

| IC50 [1] | IC50 [2] | IC50 [3] | Compound |
| --- | --- | --- | --- |
| > 60 µM | 47.3 µM | 47.3 µM | N#Cc1ccccc1CN1CC(C(N)=O)Oc2ccccc21 (stereo in doubt; form 1) |
| > 60 µM | 37.4 µM | > 60 µM | Cc1cccc(C)c1CN1CC(C(N)=O)Oc2ccccc21 (centres undefined) |
| > 60 µM | 20.1 µM | 42 µM | CC(C)(C)OC(=O)c1ccc(CN2CC(C(N)=O)Oc3ccccc32)cc1 (centres undefined) |
| > 60 µM | > 60 µM | > 60 µM | CS(=O)(=O)N1CC(C(N)=O)Oc2ccccc21 (centres undefined) |
| > 60 µM | > 60 µM | > 60 µM | CC(=O)N1CC(C(N)=O)Oc2ccccc21 (centres undefined) |
| > 60 µM | > 60 µM | > 60 µM | NC(=O)C1CN(C(=O)c2ccccc2)c2ccccc2O1 (centres undefined) |
| > 60 µM | 0.67 µM | 33.6 µM | NC(=O)C1CN(Cc2ccccc2Cl)c2ccccc2O1 (centres undefined) |
| > 60 µM | 1.48 µM | > 60 µM | NC(=O)C1CN(Cc2csc(N)n2)c2ccccc2O1 (centres undefined) |
| > 60 µM | > 60 µM | > 60 µM | CN1CC(C(N)=O)Oc2ccccc21 (centres undefined) |
| > 60 µM | 3.45 µM | > 60 µM | COC(=O)c1ccc(CN2CC(C(N)=O)Oc3ccccc32)cc1 (centres undefined) |
| > 60 µM | > 60 µM | > 60 µM | N#Cc1cccc(NC(=O)N2CC(C(N)=O)Oc3ccccc32)c1 (centres undefined) |
| > 60 µM | 6.04 µM | 0.52 µM | NC(=O)C1CN(Cc2cc(C(F)(F)F)cc(C(F)(F)F)c2)c2ccccc2O1 (centres undefined) |
| > 60 µM | > 60 µM | > 60 µM | CCOC(=O)C1CNc2ccccc2O1 (centres undefined) |
| > 60 µM | 1.9 µM | 26 µM | NC(=O)C1CN(Cc2ccc3c(c2)OCO3)c2ccccc2O1 (centres undefined) |
| > 60 µM | 31.6 µM | > 60 µM | CC(=O)Nc1ccccc1CN1CC(C(N)=O)Oc2ccccc21 (centres undefined) |
| > 60 µM | 0.43 µM | 11.2 µM | N#Cc1cccc(CN2CC(C(N)=O)Oc3ccccc32)c1 (centres undefined) |
| > 60 µM | 2.13 µM | 15.4 µM | COc1cccc(CN2CC(C(N)=O)Oc3ccccc32)c1 (centres undefined) |

| IC50 [1] | IC50 [2] | IC50 [3] | Compound |
| --- | --- | --- | --- |
| > 60 µM | 0.11 µM | 34 µM | N#Cc1ccccc1CN1CC(C(N)=O)Oc2ccccc21 (stereo in doubt; form 2) |
| > 60 µM | 1.77 µM | 35.4 µM | NC(=O)C1CN(Cc2ccccc2F)c2ccccc2O1 (centres undefined) |
| > 60 µM | 4.7 µM | 58 µM | NC(=O)C1CN(Cc2cccnc2)c2ccccc2O1 (centres undefined) |
| > 60 µM | 0.97 µM | 25 µM | NC(=O)C1CN(Cc2ccccc2C(F)(F)F)c2ccccc2O1 (centres undefined) |
| > 60 µM | 8.05 µM | 41.9 µM | NC(=O)C1CN(Cc2cn(Cc3ccccc3)nn2)c2ccccc2O1 (centres undefined) |
| > 60 µM | 1.27 µM | 1.76 µM | NC(=O)C1CN(Cc2cccc(Br)c2)c2ccccc2O1 (centres undefined) |
| > 60 µM | 2.49 µM | 22.2 µM | Cc1ccccc1CN1CC(C(N)=O)Oc2ccccc21 (centres undefined) |
| > 60 µM | – | 10.6 µM | NC(=O)C1CN(Cc2ccccc2[N+](=O)[O-])c2ccccc2O1 (centres undefined) |
| > 60 µM | 4.91 µM | 36.1 µM | NC(=O)C1CN(Cc2ccccc2N)c2ccccc2O1 (centres undefined) |
| > 60 µM | 28.5 µM | 22.8 µM | NC(=O)C1CN(Cc2ccc(C(F)(F)F)cc2)c2ccccc2O1 (centres undefined) |
| > 60 µM | 0.23 µM | 4.19 µM | NC(=O)C1CN(Cc2cccc([N+](=O)[O-])c2)c2ccccc2O1 (centres undefined) |
| > 60 µM | 0.82 µM | 12.3 µM | NC(=O)C1CN(Cc2ccccc2O)c2ccccc2O1 (centres undefined) |
| > 60 µM | 0.56 µM | 16.6 µM | NC(=O)C1CN(Cc2ccccc2Br)c2ccccc2O1 (centres undefined) |
| > 60 µM | 1.45 µM | 31.8 µM | COc1ccc(CN2CC(C(N)=O)Oc3ccccc32)cc1 (centres undefined) |
| > 60 µM | 14.1 µM | 32.6 µM | NC(=O)C1CN(Cc2cnnn2Cc2ccccc2)c2ccccc2O1 (centres undefined) |
| > 60 µM | > 60 µM | 0.6 µM | NC(=O)C1CN(Cc2ccc3nonc3c2)c2ccccc2O1 (centres undefined) |
| > 60 µM | 1.06 µM | 34.7 µM | NC(=O)C1CN(Cc2ccc([N+](=O)[O-])cc2)c2ccccc2O1 (centres undefined) |
